Broadly, the pIC50 is −log10 of the IC50, conventionally taken in molar units.

SMILES strings stand for the structures. pIC50: −log10 of the molar value.

The text below walks through data of US12581252B2, “Substituted pyrrolo[3,4-b]pyridines as PI3K-α inhibitors” (Relay Therapeutics, Inc., priority 2020, dated 2026).

One assay addresses H1047R PIK3CA enzyme (Homo sapiens, UniProt P42336, H1047R). Description: ADP-Glo Biochemical PIK3CA Kinase Assay. Background: In ADP-Glo the light output rises with the ADP produced.
The next assay in a line: cells. As to conditions: Homo sapiens, MCF-10A, read-out: MCF10A IC50.

Sequence of H1047R PIK3CA enzyme (P42336 whole entry H1047R): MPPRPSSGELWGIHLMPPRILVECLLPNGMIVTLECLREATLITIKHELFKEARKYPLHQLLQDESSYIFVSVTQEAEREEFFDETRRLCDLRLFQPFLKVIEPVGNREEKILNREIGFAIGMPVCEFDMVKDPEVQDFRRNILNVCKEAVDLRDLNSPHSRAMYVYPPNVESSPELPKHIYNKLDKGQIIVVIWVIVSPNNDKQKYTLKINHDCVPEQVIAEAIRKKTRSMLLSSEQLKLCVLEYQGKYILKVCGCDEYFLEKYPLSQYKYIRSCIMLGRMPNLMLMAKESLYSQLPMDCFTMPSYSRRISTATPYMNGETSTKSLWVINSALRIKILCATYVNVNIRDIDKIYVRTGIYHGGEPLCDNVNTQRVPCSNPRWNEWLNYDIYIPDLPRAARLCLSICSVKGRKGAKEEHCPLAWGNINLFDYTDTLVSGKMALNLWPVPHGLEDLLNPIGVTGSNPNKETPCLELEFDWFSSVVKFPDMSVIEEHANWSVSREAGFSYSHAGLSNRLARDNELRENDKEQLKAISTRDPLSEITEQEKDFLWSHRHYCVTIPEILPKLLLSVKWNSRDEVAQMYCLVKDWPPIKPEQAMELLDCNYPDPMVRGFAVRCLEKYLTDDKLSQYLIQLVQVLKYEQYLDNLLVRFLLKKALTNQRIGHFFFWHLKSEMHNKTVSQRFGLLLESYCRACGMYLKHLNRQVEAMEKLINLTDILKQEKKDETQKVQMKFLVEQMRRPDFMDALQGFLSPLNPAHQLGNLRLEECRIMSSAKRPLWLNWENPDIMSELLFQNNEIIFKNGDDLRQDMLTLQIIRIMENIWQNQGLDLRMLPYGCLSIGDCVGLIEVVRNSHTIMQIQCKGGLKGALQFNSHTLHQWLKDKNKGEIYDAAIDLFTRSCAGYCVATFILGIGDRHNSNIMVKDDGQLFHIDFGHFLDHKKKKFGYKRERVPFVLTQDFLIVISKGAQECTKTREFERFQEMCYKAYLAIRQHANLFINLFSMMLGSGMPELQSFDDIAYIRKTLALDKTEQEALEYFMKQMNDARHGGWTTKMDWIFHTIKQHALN
Sequence of H1047R PIK3CA enzyme (P27986 whole entry partner): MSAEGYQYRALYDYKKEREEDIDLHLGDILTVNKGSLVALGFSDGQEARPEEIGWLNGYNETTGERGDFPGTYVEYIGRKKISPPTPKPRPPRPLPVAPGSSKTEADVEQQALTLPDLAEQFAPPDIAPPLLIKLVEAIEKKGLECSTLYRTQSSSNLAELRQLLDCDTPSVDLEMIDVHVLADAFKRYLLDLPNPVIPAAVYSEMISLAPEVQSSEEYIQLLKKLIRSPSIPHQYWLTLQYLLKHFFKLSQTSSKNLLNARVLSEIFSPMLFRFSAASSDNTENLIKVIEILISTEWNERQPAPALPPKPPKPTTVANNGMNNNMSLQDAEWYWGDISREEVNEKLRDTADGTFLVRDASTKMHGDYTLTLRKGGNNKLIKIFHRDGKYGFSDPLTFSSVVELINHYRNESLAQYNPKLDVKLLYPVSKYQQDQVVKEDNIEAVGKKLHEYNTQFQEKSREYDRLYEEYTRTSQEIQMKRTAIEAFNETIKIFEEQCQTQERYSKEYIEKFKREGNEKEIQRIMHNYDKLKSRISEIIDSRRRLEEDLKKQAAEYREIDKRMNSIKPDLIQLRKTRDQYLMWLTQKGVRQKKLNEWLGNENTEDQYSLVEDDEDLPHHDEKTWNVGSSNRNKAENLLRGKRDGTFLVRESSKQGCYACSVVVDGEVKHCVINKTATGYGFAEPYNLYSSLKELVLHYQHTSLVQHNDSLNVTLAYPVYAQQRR

As for `Cc1ccccc1C1NC(=O)c2cc(N)cc(NC(=O)c3cc(F)cc(C(F)(F)F)c3)c21` (stereo not shown) [Compound I-40], the pIC50 at H1047R PIK3CA enzyme was at least 7.00; in the assay “cells”, 5.30 to 6.00.

Turning to `N#CCc1cc(NC(=O)N2C[C@](O)(C(F)(F)F)c3ccccc32)c2c(c1)C(=O)N[C@@H]2c1cc(F)ccc1Cl` (single isomer, unassigned) [Compound I-2605], the results for the pIC50 on H1047R PIK3CA enzyme and in the assay “cells” were at least 7.00 and above 6.00, respectively.

Consider `NCc1cc(NC(=O)N2C[C@@](O)(C(F)F)c3cc(F)ccc32)c2c(c1)C(=O)N[C@@H]2c1cc(F)ccc1Cl` (single isomer, unassigned) [Compound I-2694], for which the pIC50 is at least 7.00 on H1047R PIK3CA enzyme and 5.30 to 6.00 in the assay “cells”.

`COc1nccc(N2CC(c3cc(NC(=O)c4cc(F)cc(C(F)(F)F)c4)c4c(c3)C(=O)NC4c3cc(F)ccc3Cl)C2)n1` (stereo not shown) [Compound I-1162]: the pIC50 against H1047R PIK3CA enzyme is at least 7.00; in “cells” it was above 6.00.

Regarding `O=C(Nc1cc(-c2cc3cnccc3[nH]2)cc2c1C(c1cc(F)ccc1Cl)NC2=O)c1cc(F)cc(C(F)(F)F)c1` (stereo not shown) [Compound I-949], the pIC50 at H1047R PIK3CA enzyme was at least 7.00; in the assay “cells” it was 5.30 to 6.00.

In the case of `O=C(Nc1cc(-c2cccc3c2CCNC3=O)cc2c1C(c1cc(F)ccc1Cl)NC2=O)c1cc(F)cc(C(F)(F)F)c1` (stereo not shown) [Compound I-1042], the values for the pIC50 on H1047R PIK3CA enzyme and in the assay “cells” were at least 7.00 and above 6.00, respectively.

As for `O=C(Nc1cc(Br)cc2c1[C@H](c1cc(F)ccc1Cl)NC2=O)c1cc(F)cc(C(F)(F)F)c1` [Compound I-388], the pIC50 against H1047R PIK3CA enzyme was at least 7.00; in “cells” it was above 6.00.

With `O=C(Nc1cc(-c2cnc(N3CCOCC3)nc2)cc2c1C(c1cc(F)ccc1Cl)NC2=O)c1cc(F)cc(C(F)(F)F)c1` (stereo not shown) [Compound I-930], the pIC50 against H1047R PIK3CA enzyme was at least 7.00; in “cells”, 5.30 to 6.00.

Take `O=C(Nc1cc(-n2ccnc2)cc2c1C(c1cc(F)ccc1Cl)NC2=O)c1cc(F)cc(C(F)(F)F)c1` (stereo not shown) [Compound I-1015]: the pIC50 at H1047R PIK3CA enzyme was at least 7.00; in the assay “cells”, above 6.00.

For the molecule `[2H]C1(c2ccccc2C)NC(=O)c2cccc(NC(=O)c3csc4ccccc34)c21` (stereo not shown) [Compound I-25], the pIC50 is at least 7.00 against H1047R PIK3CA enzyme and 5.30 to 6.00 in “cells”.

As for `O=C(Nc1cc(-c2cncs2)cc2c1C(c1cc(F)ccc1Cl)NC2=O)c1cc(F)cc(C(F)(F)F)c1` (stereo not shown) [Compound I-1065], the pIC50 is at least 7.00 at H1047R PIK3CA enzyme and above 6.00 in “cells”.

Turning to `N#CC1(C(=O)Nc2cc(NC(=O)c3cc(F)cc(C(F)(F)F)c3)c3c(c2)C(=O)NC3c2cc(F)ccc2Cl)CNC1` (stereo not shown) [Compound I-2149], the figures for the pIC50 against H1047R PIK3CA enzyme and in “cells” were at least 7.00 and 4.44 to 5.00, respectively.

Take `O=C1N[C@H](c2cc(F)ccc2Cl)c2c(NC(=O)N3C[C@](O)(C(F)F)c4cc(F)ccc43)cccc21` (single isomer, unassigned) [Compound I-2558]: the negative-log IC50 (pIC50) was at least 7.00 on H1047R PIK3CA enzyme and above 6.00 in the assay “cells”.

On to `Cc1ccccc1C1NC(=O)c2cc(N)cc(NC(=O)c3csc4ccccc34)c21` (stereo not shown) [Compound I-34], for which the pIC50 at H1047R PIK3CA enzyme was at least 7.00; in “cells”, 5.30 to 6.00.

Regarding `CC(C)(O)c1cc(NC(=O)c2cc(F)cc(Cl)c2)c2c(c1)C(=O)N[C@H]2c1cc(F)ccc1Cl` [Compound I-298], the pIC50 is at least 7.00 against H1047R PIK3CA enzyme and above 6.00 in the assay “cells”.

Take `O=C1N[C@@H](c2cc(F)ccc2Cl)c2c(NC(=O)N3C[C@@](O)(C(F)(F)F)c4ccccc43)cccc21` (single isomer, unassigned) [Compound I-2386]: the pIC50 against H1047R PIK3CA enzyme was at least 7.00; in “cells” it was above 6.00.

For the molecule `N#Cc1cc(NC(=O)N2C[C@@](O)(C(F)(F)F)c3cc(F)ccc32)c2c(c1)C(=O)N[C@@H]2c1cc(F)ccc1Cl` (single isomer, unassigned) [Compound I-2560], the pIC50 on H1047R PIK3CA enzyme is at least 7.00; in the assay “cells” it was above 6.00.

As for `O=C(Nc1cc(-c2ccc3nccn3n2)cc2c1C(c1cc(F)ccc1Cl)NC2=O)c1cc(F)cc(C(F)(F)F)c1` (stereo not shown) [Compound I-905], the pIC50 is at least 7.00 at H1047R PIK3CA enzyme and above 6.00 in “cells”.

`[2H][C@@]1(c2cc(F)ccc2Cl)NC(=O)c2cccc(NC(=O)N3C[C@@](O)(C(F)(F)F)c4cc(F)ccc43)c21` (single isomer, unassigned) [Compound I-2682]: the pIC50 on H1047R PIK3CA enzyme was at least 7.00; in “cells” it was above 6.00.

For the molecule `N#CC1(COc2cc(NC(=O)N3CC(O)c4cc(F)ccc43)c3c(c2)C(=O)NC3c2cc(F)ccc2Cl)CC1` (mixture of isomers) [Compound I-2489], the pIC50 is at least 7.00 against H1047R PIK3CA enzyme and 5.00 to 5.30 in the assay “cells”.

Take `O=C(Nc1cccc2c1C(c1cc(F)ccc1Cl)NC2=O)c1csc2c1CCCC2` (stereo not shown) [Compound I-2239]: the results for the pIC50 at H1047R PIK3CA enzyme and in the assay “cells” were at least 7.00 and 5.30 to 6.00, respectively.

For the molecule `O=C(Nc1cc(NC2=NC[C@@H](C(F)(F)F)O2)cc2c1[C@H](c1cc(F)ccc1Cl)NC2=O)c1cc(F)cc(C(F)(F)F)c1` (single isomer, unassigned) [Compound I-2324], the pIC50 is at least 7.00 against H1047R PIK3CA enzyme and above 6.00 in the assay “cells”.

As to `O=C(Nc1cc(-n2cccn2)cc2c1[C@H](c1cc(F)ccc1Cl)NC2=O)c1cc(F)cc(C(F)(F)F)c1` [Compound I-1069], the pIC50 was at least 7.00 at H1047R PIK3CA enzyme and above 6.00 in “cells”.

For `Cc1ccccc1C1NC(=O)c2cccc(NC(=O)c3csc4ccccc34)c21` (stereo not shown) [Compound I-1, N-(1-Oxo-3-(o-tolyl)isoindolin-4-yl)benzo[b]thiophene-3-carboxamide], the pIC50 at H1047R PIK3CA enzyme is 6.30 to 7.00; in “cells”, 5.30 to 6.00.

With `O=C(Nc1cc(-c2ccc3ncnn3c2)cc2c1C(c1cc(F)ccc1C(F)F)NC2=O)c1cc(F)cc(C(F)(F)F)c1` (stereo not shown) [Compound I-1057], the pIC50 on H1047R PIK3CA enzyme was at least 7.00; in “cells”, above 6.00.

With `Cc1cc2ncc(-c3cc(NC(=O)c4cc(F)cc(C(F)(F)F)c4)c4c(c3)C(=O)NC4c3cc(F)ccc3Cl)cn2n1` (stereo not shown) [Compound I-1032], the pIC50 was at least 7.00 against H1047R PIK3CA enzyme and above 6.00 in the assay “cells”.

Turning to `O=C(Nc1cc(-c2n[nH]c3ccccc23)cc2c1C(c1cc(F)ccc1Cl)NC2=O)c1cc(F)cc(C(F)(F)F)c1` (stereo not shown) [Compound I-937], the pIC50 is 6.30 to 7.00 on H1047R PIK3CA enzyme and 5.30 to 6.00 in “cells”.

In the case of `Cc1ccccc1C1NC(=O)c2cccc(NC(=O)c3nsc4ccccc34)c21` (stereo not shown) [Compound I-13, N-(1-Oxo-3-(o-tolyl)isoindolin-4-yl)benzo[d]isothiazole-3-carboxamide], the pIC50 at H1047R PIK3CA enzyme was 6.30 to 7.00; in “cells”, 5.30 to 6.00.

On to `O=C1N[C@@H](c2cc(F)ccc2Cl)c2c(NC(=O)N3C[C@@H](O)c4cc(F)ccc43)cccc21` (single isomer, unassigned) [Compound I-2127], for which the pIC50 at H1047R PIK3CA enzyme is at least 7.00; in “cells”, above 6.00.

Regarding `O=C1N[C@@H](c2cc(F)ccc2Cl)c2c(NC(=O)N3C[C@](O)(C(F)F)c4cc(F)ccc43)cc(F)cc21` (single isomer, unassigned) [Compound I-2635], the pIC50 against H1047R PIK3CA enzyme was at least 7.00; in the assay “cells”, above 6.00.

For the molecule `Cc1nocc1Nc1cc(NC(=O)c2cc(F)cc(C(F)(F)F)c2)c2c(c1)C(=O)NC2c1cc(F)ccc1Cl` (stereo not shown) [Compound I-856], the pIC50 against H1047R PIK3CA enzyme is at least 7.00; in “cells” it was above 6.00.

In the case of `CNC(=O)c1cc(NC(=O)c2cc(F)cc(C(F)(F)F)c2)c2c(c1)C(=O)NC2c1cc(F)ccc1Cl` (stereo not shown) [Compound I-493], the pIC50 against H1047R PIK3CA enzyme is at least 7.00; in “cells”, above 6.00.
